# Test results published in US20130336899A1, “ANTIMICROBIAL FORMULATIONS THAT AID IN WOUND HEALING” (Purdue Research Foundation, priority 2010, published 2013).
# Legend:
# Assay type in all cases: cell-based
# bacteria [1] = test: Bactericidal log reduction after 10 and 60 min treatment; details: for Log Red - 10 min: 10 min treatment; for Log Red - 60 min: 60 min treatment
# Description: Referring now to FIG. 4, the bactericidal effect of osmopermeation is fast acting and occurs in less than 10 minutes, as shown. Finally, osmopermeation is wide spectrum in nature and effective in treating both Gram (+) and Gram (−) bacterial strains.
# bacteria [2] = test: Cell viability with vital stain (propidium iodide, PI); details: thymol 2.66 mM, sucrose 1.17 OsM; after 1 hr
# From the text: FIG. 3A. Photomicrographs of cells that were: untreated; or treated with sucrose, or thymol or sucrose and thymol (S+T).
# bacteria [3] = test: Bactericidal action of hypertonic sucrose with or without membrane permeabilizing agent
# bacteria [4] = test: Measurement of 260/280 nm absorbing material (bacteriolysis, loss of intracellular proteins); details: sucrose 1.17 OsM, thymol 2.66 mM
# S. aureus = test: Dose response, MIC and combination index, 24 hrs of treatment; details: thymol emulsion
# From the text: (§1) Responses represent 24 hrs of treatment. Six specific combinations (S+T) of sucrose and thymol are also plotted for each strain. The effect level (Fa) represents a value between 0 and 1.0 with 0 being no effect and 1.0 being all cells affected. (B) Normalized isobolograms defining the interaction between S and T. Numbered points correspond to the specific combinations enumerated in the table. Table denotes the minimum inhibitory concentrations (MICs) for each treatment as well as outcomes of the six S+T combinations. The nature of the two-treatment interaction is measured via the combination index (CI). The CI<1 is roughly defined as synergistic, ˜1 is additive and CI>1 is antagonistic. See Chou T C. “Theoretical basis, experimental design and computerized simulation of synergism and antagonism in drug combination studies”. Pharmacol. Rev. 2006; […]:621-81. Synergistic interactions were found in combinations with various hyperosmotic pressures and concentrations of the membrane permeabilizing agent.
# (§2) Data collected with 4 strains of bacterial E. coli, E, faecalis, S. aureus and MRSA.
# E. faecalis = test: as above; details: thymol emulsion
# From the text: as §1, §2
# E. coli = test: as above; details: thymol emulsion
# From the text: as §1, §2
# MRSA = test: as above; details: thymol emulsion
# From the text: as §1, §2
Compound,Log Red - 10 min (bacteria [1]),Log Red - 60 min (bacteria [1]),effect on cell viability (PI vital stain) (bacteria [2]),bactericidal effect (bacteria [3]),280 nm (A.U.) (bacteria [4]; absorbing material released),absorbance at 260 nm (bacteria [4]; absorbing material released),260/280 nm (bacteria [4]; ratio of absorbances),MICT (S. aureus) [mM],MICT (E. faecalis) [mM],MICT (E. coli) [mM],MICT (MRSA) [mM]
"Cc1ccc(C(C)C)c(O)c1 [Thymol (T), 2-isopropyl-5-methylphenol]",~6.4,~6.7,little effect on cell viability,no significant bactericidal effect,1.02,.99 A.U.,0.97,1.65,2.60,2.60,1.65
"OC[C@H]1O[C@@](CO)(O[C@H]2O[C@H](CO)[C@@H](O)[C@H](O)[C@H]2O)[C@@H](O)[C@@H]1O [Sucrose (S), sucrose]",<0.5,<0.2,little effect on cell viability,no bactericidal effect and actually permits cell proliferation,,,,,,,
